In patent US8420675B2, “Aminotetrahydroindazoloacetic acids” (Hoffmann-La Roche Inc., priority 2008, dated 2013) one finds IC50 data, which are given here for 29 compounds.

The target of the test is T1, human CRTH2 (Homo sapiens, UniProt Q9Y5Y4).
T1 construct: expressed in transfected cells
T1 sequence (Q9Y5Y4 1-395): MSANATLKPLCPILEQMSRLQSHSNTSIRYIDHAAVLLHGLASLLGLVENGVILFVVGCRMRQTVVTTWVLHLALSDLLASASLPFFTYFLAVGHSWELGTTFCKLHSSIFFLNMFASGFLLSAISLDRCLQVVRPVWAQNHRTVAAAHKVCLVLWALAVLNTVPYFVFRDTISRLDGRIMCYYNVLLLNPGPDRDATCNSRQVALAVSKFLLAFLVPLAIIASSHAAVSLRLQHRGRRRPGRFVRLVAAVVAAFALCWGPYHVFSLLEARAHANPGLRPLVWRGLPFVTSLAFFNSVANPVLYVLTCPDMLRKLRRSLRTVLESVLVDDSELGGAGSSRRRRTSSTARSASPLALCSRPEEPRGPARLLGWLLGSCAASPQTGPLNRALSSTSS
The test can be described thus: Human CRTH2 Receptor Binding Assay (whole cell, [3H]ramatroban competition). To be noted: CHO-K1 cells expressing human CRTH2 and G-alpha16; 20 nM [3H]ramatroban; 1 hour, room temperature. In a few lines: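 CHO-K1 cells stably co-expressing human CRTH2 and G-alpha16, 1.5×10^5 per reaction, incubated 1 hour at room temperature with 20 nM [3H]ramatroban in PBS containing 10 mM MgCl2 and 0.06% BSA. Non-specific binding defined with 10 μM 15(R)-15-methyl PGD2. IC50 from 7 concentrations by 4-parameter logistic fit of specific binding inhibition.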
As usually defined, the IC50 is the concentration needed to halve the response being measured. Higher therefore signals weaker potency. As to `CN([C@@H]1CCCc2c1cnn2CC(=O)O)S(=O)(=O)c1ccc(Oc2ccc(S(C)(=O)=O)cc2)c(Cl)c1` [Example 9-25a, ((R)-4-{[3-Chloro-4-(4-methanesulfonyl-phenoxy)-benzenesulfonyl]-methyl-amino}-4,5,6,7-tetrahydro-indazol-1-yl)-acetic acid], the IC50 came to 20.9 nM.

`Cc1ccccc1Oc1ccc(S(=O)(=O)N(C)[C@@H]2CCCc3c2cnn3CC(=O)O)cc1Cl` [Example 9-26a, {(R)-4-[(3-Chloro-4-o-tolyloxy-benzenesulfonyl)-methyl-amino]-4,5,6,7-tetrahydro-indazol-1-yl}-acetic acid]: the IC50 came out at 23.7 nM.

`CC(=O)Nc1ccc(Oc2ccc(S(=O)(=O)N(C)[C@@H]3CCCc4c3cnn4CC(=O)O)cc2Cl)cc1` [Example 9-27a, ((R)-4-{[4-(4-Acetylamino-phenoxy)-3-chloro-benzenesulfonyl]-methyl-amino}-4,5,6,7-tetrahydro-indazol-1-yl)-acetic acid] showed an IC50 of 49.1 nM. Compared with the last compound, the IC50 is about 2.1-fold higher.

In turn, `CN([C@@H]1CCCc2c1cnn2CC(=O)O)S(=O)(=O)c1ccc(Oc2ccc(OC(F)(F)F)cc2)c(Cl)c1` [Example 9-28a, ((R)-4-{[3-Chloro-4-(4-trifluoromethoxy-phenoxy)-benzenesulfonyl]-methyl-amino}-4,5,6,7-tetrahydro-indazol-1-yl)-acetic acid] displayed an IC50 of 11.8 nM.

`CN([C@@H]1CCCc2c1cnn2CC(=O)O)S(=O)(=O)c1cc(F)c(Oc2ccc(F)cc2)cc1Cl` [Example 9-29a, ((R)-4-{[2-Chloro-5-fluoro-4-(4-fluoro-phenoxy)-benzenesulfonyl]-methyl-amino}-4,5,6,7-tetrahydro-indazol-1-yl)-acetic acid] gave an IC50 of 151 nM. Compared with the last compound, the IC50 is about 13-fold higher.

As for `CN([C@@H]1CCCc2c1cnn2CC(=O)O)S(=O)(=O)c1cc(Cl)c(Oc2ccc(F)cc2)cc1F` [Example 9-30a, ((R)-4-{[5-Chloro-2-fluoro-4-(4-fluoro-phenoxy)-benzenesulfonyl]-methyl-amino}-4,5,6,7-tetrahydro-indazol-1-yl)-acetic acid], the IC50 came out at 37.7 nM.

In the case of `COc1ccc(Oc2ccc(S(=O)(=O)N(C)[C@@H]3CCCc4c3cnn4CC(=O)O)cc2Cl)cc1` [Example 9-31a, ((R)-4-{[3-Chloro-4-(4-methoxy-phenoxy)-benzenesulfonyl]-methyl-amino}-4,5,6,7-tetrahydro-indazol-1-yl)-acetic acid], the IC50 turned out to be 6.8 nM.

Turning to `CN([C@@H]1CCCc2c1cnn2CC(=O)O)S(=O)(=O)c1ccc(Oc2ccc(F)cc2F)c(Cl)c1` [Example 9-32a, ((R)-4-{[3-Chloro-4-(2,4-difluoro-phenoxy)-benzenesulfonyl]-methyl-amino}-4,5,6,7-tetrahydro-indazol-1-yl)-acetic acid], the IC50 turned out to be 7.6 nM.

In turn, `CN([C@@H]1CCCc2c1cnn2CC(=O)O)S(=O)(=O)c1ccc(Oc2c(F)cccc2F)c(Cl)c1` [Example 9-33a, ((R)-4-{[3-Chloro-4-(2,6-difluoro-phenoxy)-benzenesulfonyl]-methyl-amino}-4,5,6,7-tetrahydro-indazol-1-yl)-acetic acid] had an IC50 of 10.6 nM. This IC50 and that of the compound before are within 1.5-fold of each other.

As for `CN([C@@H]1CCCc2c1cnn2CC(=O)O)S(=O)(=O)c1ccc(Oc2ccc(C#N)cc2)c(Cl)c1` [Example 9-34a, ((R)-4-{[3-Chloro-4-(4-cyano-phenoxy)-benzenesulfonyl]-methyl-amino}-4,5,6,7-tetrahydro-indazol-1-yl)-acetic acid], the IC50 was found to be 4.6 nM.

`Cc1cc(S(=O)(=O)N(C)[C@@H]2CCCc3c2cnn3CC(=O)O)ccc1Oc1ccc(F)cc1` [Example 9-35a, ((R)-4-{[4-(4-Fluoro-phenoxy)-3-methyl-benzenesulfonyl]-methyl-amino}-4,5,6,7-tetrahydro-indazol-1-yl)-acetic acid] returned an IC50 of 17.1 nM. This IC50 is about 3.7-fold higher than that of the compound before.

`CN([C@@H]1CCCc2c1cnn2CC(=O)O)S(=O)(=O)c1ccc(Oc2ccc(C(N)=O)cc2)c(Cl)c1` [Example 9-36a, ((R)-4-{[4-(4-Carbamoyl-phenoxy)-3-chloro-benzenesulfonyl]-methyl-amino}-4,5,6,7-tetrahydro-indazol-1-yl)-acetic acid]: the IC50 was determined as 23.1 nM.

Turning to `CN([C@@H]1CCCc2c1cnn2CC(=O)O)S(=O)(=O)c1ccc(Oc2ccccc2F)c(Cl)c1` [Example 9-37a, ((R)-4-{[3-Chloro-4-(2-fluoro-phenoxy)-benzenesulfonyl]-methyl-amino}-4,5,6,7-tetrahydro-indazol-1-yl)-acetic acid], the IC50 came to 14.8 nM. Compared with the last compound, the IC50 is about 1.6-fold lower.

The compound `Cc1cc(F)ccc1Oc1ccc(S(=O)(=O)N(C)[C@@H]2CCCc3c2cnn3CC(=O)O)cc1Cl` [Example 9-38a, ((R)-4-{[3-Chloro-4-(4-fluoro-2-methyl-phenoxy)-benzenesulfonyl]-methyl-amino}-4,5,6,7-tetrahydro-indazol-1-yl)-acetic acid] returned an IC50 of 8 nM.

Regarding `CN([C@@H]1CCCc2c1cnn2CC(=O)O)S(=O)(=O)c1cc(F)c(Oc2ccc(F)cc2)c(F)c1` [Example 9-39a, ((R)-4-{[3,5-Difluoro-4-(4-fluoro-phenoxy)-benzenesulfonyl]-methyl-amino}-4,5,6,7-tetrahydro-indazol-1-yl)-acetic acid], the IC50 amounted to 10.4 nM.

Turning to `CN([C@@H]1CCCc2c1cnn2CC(=O)O)S(=O)(=O)c1ccc(Oc2ccc(F)cc2)c(Br)c1` [Example 9-40a, ((R)-4-{[3-Bromo-4-(4-fluoro-phenoxy)-benzenesulfonyl]-methyl-amino}-4,5,6,7-tetrahydro-indazol-1-yl)-acetic acid], the IC50 is 7.9 nM.

`CN([C@@H]1CCCc2c1cnn2CC(=O)O)S(=O)(=O)c1ccc(Oc2ccc(F)cc2)c(C(F)(F)F)c1` [Example 9-41a, ((R)-4-{[4-(4-Fluoro-phenoxy)-3-trifluoromethyl-benzenesulfonyl]-methyl-amino}-4,5,6,7-tetrahydro-indazol-1-yl)-acetic acid] gave an IC50 of 7.5 nM.

Regarding `CN([C@@H]1CCCc2c1cnn2CC(=O)O)S(=O)(=O)c1cc(Oc2ccc(F)cc2)cc(C(F)(F)F)c1` [Example 9-42a, ((R)-4-{[3-(4-Fluoro-phenoxy)-5-trifluoromethyl-benzenesulfonyl]-methyl-amino}-4,5,6,7-tetrahydro-indazol-1-yl)-acetic acid], the IC50 was determined as 22.6 nM.

Regarding `COc1ccc(-c2ccc(S(=O)(=O)NC3CCCc4c3cnn4CC(=O)O)cc2)cc1` (centres unmarked) [Example 10-1a, [4-(4′-Methoxy-biphenyl-4-sulfonylamino)-4,5,6,7-tetrahydro-indazol-1-yl]-acetic acid], the IC50 was 215 nM.

With `O=C(O)Cn1ncc2c1CCCC2NS(=O)(=O)c1ccc(-c2cccnc2)cc1` (centres unmarked) [Example 10-2a, [4-(4-Pyridin-3-yl-benzenesulfonylamino)-4,5,6,7-tetrahydro-indazol-1-yl]-acetic acid], the IC50 was 371 nM.

In turn, `CCOc1ccc(-c2ccc(S(=O)(=O)NC3CCCc4c3cnn4CC(=O)O)cc2)cc1` (centres unmarked) [Example 10-3a, [4-(4′-Ethoxy-biphenyl-4-sulfonylamino)-4,5,6,7-tetrahydro-indazol-1-yl]-acetic acid] gave an IC50 of 194 nM.

As for `O=C(O)Cn1ncc2c1CCCC2NS(=O)(=O)c1ccc(-c2ccccc2Cl)cc1` (centres unmarked) [Example 10-4a, [4-(2′-Chloro-biphenyl-4-sulfonylamino)-4,5,6,7-tetrahydro-indazol-1-yl]-acetic acid], the IC50 was determined as 257 nM.

For `COc1ccc(-c2cccc(S(=O)(=O)NC3CCCc4c3cnn4CC(=O)O)c2)cc1` (centres unmarked) [Example 10-5a, [4-(4′-Methoxy-biphenyl-3-sulfonylamino)-4,5,6,7-tetrahydro-indazol-1-yl]-acetic acid], the 50% inhibitory concentration (IC50) is 369 nM.

`O=C(O)Cn1ncc2c1CCCC2NS(=O)(=O)c1ccc(-c2ccc(Cl)cc2)cc1` (centres unmarked) [Example 10-6a, [4-(4′-Chloro-biphenyl-4-sulfonylamino)-4,5,6,7-tetrahydro-indazol-1-yl]-acetic acid] had an IC50 of 207 nM.

Take `O=C(O)Cn1ncc2c1CCCC2NS(=O)(=O)c1ccc(-c2ccc(F)cc2)cc1` (centres unmarked) [Example 10-7a, [4-(4′-Fluoro-biphenyl-4-sulfonylamino)-4,5,6,7-tetrahydro-indazol-1-yl]-acetic acid]: the IC50 turned out to be 300 nM.

For the compound `O=C(O)Cn1ncc2c1CCCC2NS(=O)(=O)c1ccc(-c2ccccc2)c(F)c1` (centres unmarked) [Example 10-8a, [4-(2-Fluoro-biphenyl-4-sulfonylamino)-4,5,6,7-tetrahydro-indazol-1-yl]-acetic acid], the IC50 was 412 nM.

Regarding `O=C(O)Cn1ncc2c1CCCC2NS(=O)(=O)c1ccc(-c2ccccc2)c(C(F)(F)F)c1` (centres unmarked) [Example 10-9a, [4-(2-Trifluoromethyl-biphenyl-4-sulfonylamino)-4,5,6,7-tetrahydro-indazol-1-yl]-acetic acid], the IC50 came to 71.6 nM.

In the case of `COc1cccc(-c2ccc(S(=O)(=O)NC3CCCc4c3cnn4CC(=O)O)cc2)c1` (centres unmarked) [Example 10-10a, [4-(3′-Methoxy-biphenyl-4-sulfonylamino)-4,5,6,7-tetrahydro-indazol-1-yl]-acetic acid], the IC50 came out at 370 nM. Against the preceding compound, the IC50 is about 5.2-fold higher.

Take `N#Cc1cccc(-c2ccc(S(=O)(=O)NC3CCCc4c3cnn4CC(=O)O)cc2)c1` (centres unmarked) [Example 10-11a, [4-(3′-Cyano-biphenyl-4-sulfonylamino)-4,5,6,7-tetrahydro-indazol-1-yl]-acetic acid]: the IC50 turned out to be 321 nM. The IC50 values of the last two compounds are within 1.5-fold of each other.
